From ChEMBL document CHEMBL2203227, “Macrocycles are great cycles: applications, opportunities, and challenges of synthetic macrocycles in drug discovery” (J Med Chem, 2011)
One block for each compound: values may come before it. *1 amine or outer side, *2 acyl side, *3 side chain or, on linkers, in order; H or OH if unused. Where a SMILES comes first, the peptide text is derived from it. [ ]: non-standard residue; d: D form. LeuΨ(S-CHOHCH2)Ala = CC(C)C[C@H](N[*:1])[C@@H](O)C[C@@H](C)C(=O)[*:2]

Tests used:
[1] = target: Growth hormone secretagogue receptor type 1 (Homo sapiens, UniProt Q92847); assay: Agonist activity at ghrelin receptor; type: functional
Chain of Growth hormone secretagogue receptor type 1 (Q92847 whole entry): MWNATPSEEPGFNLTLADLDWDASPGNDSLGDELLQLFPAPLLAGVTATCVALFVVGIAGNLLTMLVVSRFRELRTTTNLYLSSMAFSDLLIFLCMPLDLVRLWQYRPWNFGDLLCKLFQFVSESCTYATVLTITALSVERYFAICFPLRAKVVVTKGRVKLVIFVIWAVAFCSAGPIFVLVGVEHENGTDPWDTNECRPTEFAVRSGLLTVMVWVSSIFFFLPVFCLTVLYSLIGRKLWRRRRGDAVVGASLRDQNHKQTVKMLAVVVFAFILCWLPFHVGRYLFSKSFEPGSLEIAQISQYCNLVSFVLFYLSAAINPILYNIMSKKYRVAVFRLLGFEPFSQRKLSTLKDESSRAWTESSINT

[2] = Inhibition of FTase
[3] = target: T1, Renin (Homo sapiens, UniProt P00797); assay: Inhibition of renin
T1 sequence (P00797 whole entry): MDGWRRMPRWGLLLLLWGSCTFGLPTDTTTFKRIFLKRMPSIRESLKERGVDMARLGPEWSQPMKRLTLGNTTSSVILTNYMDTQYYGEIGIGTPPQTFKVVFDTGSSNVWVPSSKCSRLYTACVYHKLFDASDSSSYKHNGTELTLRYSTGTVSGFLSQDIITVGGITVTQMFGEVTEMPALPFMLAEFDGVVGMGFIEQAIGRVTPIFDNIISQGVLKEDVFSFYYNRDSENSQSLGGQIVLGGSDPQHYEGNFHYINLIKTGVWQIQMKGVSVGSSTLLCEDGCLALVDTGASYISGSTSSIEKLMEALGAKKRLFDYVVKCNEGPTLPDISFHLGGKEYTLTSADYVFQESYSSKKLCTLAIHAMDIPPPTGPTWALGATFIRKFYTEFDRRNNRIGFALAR

[4] = Inhibition of HCV NS3 protease; parameters: species or system Hepacivirus hominis
[5] = test system: Hepatitis C virus; assay: microbe, parasite or virus in culture
Description: Antiviral activity against HCV by cell based replicon assay

[6] = target: GTPase KRas (Homo sapiens, UniProt P01116); assay: Inhibition of Ki-Ras
Chain of GTPase KRas (P01116 whole entry): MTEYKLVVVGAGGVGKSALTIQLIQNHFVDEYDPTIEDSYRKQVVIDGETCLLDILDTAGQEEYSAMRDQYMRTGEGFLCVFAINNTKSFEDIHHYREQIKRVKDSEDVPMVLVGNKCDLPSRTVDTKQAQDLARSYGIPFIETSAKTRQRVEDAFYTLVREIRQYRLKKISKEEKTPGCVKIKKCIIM

[7] = target: Ras-related protein Rap-1A (Homo sapiens, UniProt P62834); assay: Inhibition of Rap1a
Chain of Ras-related protein Rap-1A (P62834 whole entry): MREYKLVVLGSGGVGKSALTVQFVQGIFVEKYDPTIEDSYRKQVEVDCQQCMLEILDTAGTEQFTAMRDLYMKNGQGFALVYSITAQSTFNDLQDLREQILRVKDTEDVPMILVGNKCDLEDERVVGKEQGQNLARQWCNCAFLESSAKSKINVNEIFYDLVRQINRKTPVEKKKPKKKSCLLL

[8] = target: DnaJ homolog subfamily A member 1 (Homo sapiens, UniProt P31689); assay: Inhibition of HDJ2
Chain of DnaJ homolog subfamily A member 1 (P31689 whole entry): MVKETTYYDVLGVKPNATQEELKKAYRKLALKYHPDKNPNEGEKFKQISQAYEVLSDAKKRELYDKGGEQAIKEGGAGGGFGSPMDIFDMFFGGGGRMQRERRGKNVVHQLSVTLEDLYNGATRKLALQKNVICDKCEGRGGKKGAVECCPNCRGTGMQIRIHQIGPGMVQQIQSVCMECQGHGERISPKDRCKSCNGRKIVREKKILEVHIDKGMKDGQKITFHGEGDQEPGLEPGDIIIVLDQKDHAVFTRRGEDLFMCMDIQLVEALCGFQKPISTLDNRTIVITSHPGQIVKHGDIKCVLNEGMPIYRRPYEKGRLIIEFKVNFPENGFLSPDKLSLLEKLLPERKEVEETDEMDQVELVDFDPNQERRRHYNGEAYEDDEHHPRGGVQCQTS

[9] = Inhibition of GGTase
[10] = Inhibition of HCV 3a NS3 protease; parameters: species or system Hepatitis C virus subtype 3a
[11] = test system: Hepatitis C virus; assay: Inhibition of HCV 1b NS3 protease; parameters: species or system Hepatitis C virus subtype 1b
[12] = Half life in dog; type: ADME, organism-based, Canis lupus familiaris; details: in vivo
[13] = Inhibition of HIV protease; parameters: species or system Human immunodeficiency virus
[14] = Selectivity ratio of IC50 for trypsin to IC50 for thrombin
[15] = Selectivity ratio of IC50 for tPa to IC50 for thrombin
[16] = target: Prothrombin (Homo sapiens, UniProt P00734); assay: Inhibition of thrombin
[17] = Inhibition of HDAC by fluorimetry assay
[18] = target: Beta-secretase 1 (Homo sapiens, UniProt P56817); assay: Inhibition of BACE1
Chain of Beta-secretase 1 (P56817 whole entry): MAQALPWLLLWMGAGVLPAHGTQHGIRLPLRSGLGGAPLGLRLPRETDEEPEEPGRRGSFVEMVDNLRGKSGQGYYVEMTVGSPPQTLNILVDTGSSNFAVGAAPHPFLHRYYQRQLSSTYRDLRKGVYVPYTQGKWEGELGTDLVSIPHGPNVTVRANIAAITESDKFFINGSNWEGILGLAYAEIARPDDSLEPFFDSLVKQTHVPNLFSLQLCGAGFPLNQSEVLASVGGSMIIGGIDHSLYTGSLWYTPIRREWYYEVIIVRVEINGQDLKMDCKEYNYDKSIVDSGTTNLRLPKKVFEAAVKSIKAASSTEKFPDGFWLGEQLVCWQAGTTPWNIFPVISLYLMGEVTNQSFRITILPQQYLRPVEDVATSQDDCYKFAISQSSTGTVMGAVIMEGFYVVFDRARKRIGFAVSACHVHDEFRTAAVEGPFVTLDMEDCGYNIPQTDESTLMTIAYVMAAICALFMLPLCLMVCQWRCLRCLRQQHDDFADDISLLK

[19] = Oral bioavailability in rat; type: ADME, organism-based; details: in vivo

EC50 [1]: 68 nM
Structure (SMILES): CCC[C@@H]1NCCOc2ccccc2/C=C/CNC(=O)[C@@H](Cc2ccccc2)NC(=O)CN(C)C1=O

IC50 [3]: > 100000 nM
Structure (SMILES): CC[C@H](C)[C@H](NC(=O)[C@@H](NC[C@@H]1COCCCN(C(=O)[C@H](Cc2ccccc2)NC(=O)OC(C)(C)C)[C@@H](C)C(=O)N1)C(C)C)C(=O)N[C@@H](Cc1cnc[nH]1)C(=O)OC

Ki [10]: 1.2 nM
EC50 [5]: 2 nM
Structure (SMILES): COc1cc2nc(-c3ccccc3)cc3c2cc1/C=C/CC(C)(C)COC(=O)N[C@H]1CCCCC/C=C\[C@@H]2C[C@@]2(C(=O)NS(=O)(=O)C2CC2)NC(=O)[C@@H]2C[C@H](CN2C1=O)O3
Ki [11]: 0.029 nM

IC50 [3]: 69000 nM
Structure (SMILES): CC[C@H](C)[C@H](NC(=O)[C@@H](NC[C@@H]1COCCCCCN(C(=O)[C@H](Cc2ccccc2)NC(=O)OC(C)(C)C)[C@@H](C)C(=O)N1)C(C)C)C(=O)N[C@@H](Cc1cnc[nH]1)C(=O)OC

Ratio IC50 [14]: > 2000
Ratio IC50 [15]: > 2000
Structure (SMILES): O=C1COc2ccc(Cl)cc2CNC(=O)[C@@H]2CCCN2C(=O)[C@@H](C2CCCCC2)NC(=O)CCCN1

IC50 [13]: 7 nM
Ki [13]: 0.06 nM
Structure (SMILES): COc1ccc2c(c1)OCC/C=C/CCCCN(C[C@@H](O)[C@H](Cc1ccccc1)NC(=O)O[C@H]1CO[C@H]3OCC[C@H]31)S2(=O)=O

Ki [16]: 180 nM
Structure (SMILES): NC(N)=NCCC[C@@H]1NC(=O)[C@@H]2CCCN2C(=O)[C@@H](NC=O)CNC(=O)/C=C/[C@H](Cc2ccc(O)cc2)NC(=O)[C@@H](Cc2ccccc2)NC(=O)C1=O [CYCLOTHEONAMIDE A]

IC50 [17]: 4300 nM
Structure (SMILES): O=C(CCCCCC1C2=NC(Cc3ccccc3)=C(O2)C(Cc2ccccc2)CCn2cc(nn2)CCCN1Cc1ccccc1)NO (stereo not drawn)

IC50 [18]: 1.6 nM
Structure (SMILES): CC(C)C[C@H](NC(=O)[C@H](CC(N)=O)NC(=O)[C@H](C)NC(=O)[C@@H](N)CCC(=O)O)[C@@H](O)C[C@@H](C)C(=O)N[C@@H](C)C(=O)N[C@@H](CCC(=O)O)C(=O)N[C@@H](Cc1ccccc1)C(=O)O (H-EAN[LeuΨ(S-CHOHCH2)Ala]AEF-OH)

IC50 [18]: 27 nM
Structure (SMILES): CCCN(c1cc(COC(=O)[C@](C)(N)Cc2ccccc2)cc(C(=O)N[C@H](C)c2ccc(F)cc2)c1)S(C)(=O)=O

The next lines start with the compound.

Structure (SMILES): Cc1ncn(Cc2ccc(C#N)cc2)c1CN1CC(=O)N(c2cccc(Cl)c2)C[C@@H]1CCS(C)(=O)=O
IC50 [2]: 475 nM

Structure (SMILES): C=C[C@@H]1C[C@]1(NC(=O)[C@@H]1C[C@@H]2CN1C(=O)[C@H](C(C)(C)C)NC(=O)OCCCC/C=C/c1ccc3ccnc(c3c1)O2)C(=O)NS(=O)(=O)C1CC1
Ki [4]: 0.18 nM
IC50 [5]: 8.7 nM

Structure (SMILES): N#Cc1ccc2cc1Oc1ccc(CCC3CCCCC3)c(c1)CN1CCN(CC1=O)Cc1cncn1C2
IC50 [2]: 1.6 nM
EC50 [6]: 1060 nM
EC50 [7]: 140 nM
EC50 [8]: 12 nM
IC50 [9]: 1.7 nM

Structure (SMILES): N#Cc1ccccc1Oc1ccc2cccc(N3CCN(Cc4cnc[nH]4)CC3=O)c2c1
IC50 [2]: 4500 nM

Structure (SMILES): N#Cc1ccc2cc1Oc1ccc3cccc(c3c1)N1CCN(CC1=O)Cc1cncn1C2
IC50 [2]: 0.1 nM
half-life [12]: 1 h
EC50 [6]: > 10000 nM
EC50 [7]: > 10000 nM
EC50 [8]: 2 nM
IC50 [9]: 301 nM

Structure (SMILES): N#Cc1ccc2cc1Oc1ccc3c(c1)[C@@H](CC3)N1CC[C@@H](NCc3cncn3C2)C1=O
IC50 [2]: < 1.6 nM
IC50 [9]: 18000 nM

Structure (SMILES): CC(C)CCN(C[C@@H](O)[C@@H]1Cc2ccc(cc2)OCCCC(=O)N[C@@H](CC(N)=O)C(=O)N1)S(=O)(=O)c1ccccc1
Ki [13]: 0.6 nM

Structure (SMILES): C=C[C@@H]1C[C@]1(NC(=O)[C@@H]1C[C@@H](Oc2cc(-c3ccccc3)nc3cc(OC)ccc23)CN1C(=O)[C@@H](NC(=O)[C@@H](NC(C)=O)C1CCCCC1)C(C)(C)C)C(=O)O
IC50 [4]: 1 nM

Structure (SMILES): CC(C)(C)C(=O)NCCOC(=O)N[C@@H](Cc1ccccc1)C(=O)N[C@H]1CCC(=O)NCCOC(=O)[C@H](O)[C@H](CC2CCCCC2)NC1=O
IC50 [3]: 56 nM

Structure (SMILES): C[C@H]1NCc2cncn2Cc2ccc(C#N)c(c2)Oc2ccc3cccc(c3c2)NC1=O
IC50 [2]: 1.3 nM
IC50 [9]: 313 nM

Structure (SMILES): O=C1COc2ccc(Cl)cc2CNC(=O)[C@@H]2CCCN2C(=O)[C@@H](C2CCCCC2)NC(=O)CN1
Ki [16]: 0.4 nM
Ratio IC50 [14]: > 2000
Ratio IC50 [15]: > 2000

Structure (SMILES): O=C(CCCCCC1C2=NC(Cc3ccccc3)=C(O2)C(Cc2ccccc2)CCCCn2cc(nn2)CCCN1Cc1ccccc1)NO (stereo not drawn)
IC50 [17]: 6100 nM

Structure (SMILES): CC[C@H](C)[C@@H]1NCCOc2ccccc2CCCNC(=O)[C@@H](Cc2ccccc2)NC(=O)[C@@H](C)N(C)C1=O
Ki [1]: 6 nM

Structure (SMILES): C[C@@H]1CN[C@@H](C2CC2)C(=O)N(C)[C@H](C)C(=O)N[C@H](Cc2ccc(F)cc2)C(=O)NCCCc2ccccc2O1 [ULIMORELIN]
EC50 [1]: 27 nM
bioavailability [19]: 16%
